Assays:
[1] = biological target: T1, recombinant human muscarinic receptor m2 (Homo sapiens, UniProt P08172); assay: Radioligand binding studies, [3H]N-methyl scopolamine, scintillation proximity assay; details: CHO cell membranes, pIC50 converted to pKi by Cheng-Prusoff
T1 construct: expressed in transfected cells; host or cells: Chinese hamster ovary (CHO) cells, membrane preparation
T1 sequence (P08172 1-466): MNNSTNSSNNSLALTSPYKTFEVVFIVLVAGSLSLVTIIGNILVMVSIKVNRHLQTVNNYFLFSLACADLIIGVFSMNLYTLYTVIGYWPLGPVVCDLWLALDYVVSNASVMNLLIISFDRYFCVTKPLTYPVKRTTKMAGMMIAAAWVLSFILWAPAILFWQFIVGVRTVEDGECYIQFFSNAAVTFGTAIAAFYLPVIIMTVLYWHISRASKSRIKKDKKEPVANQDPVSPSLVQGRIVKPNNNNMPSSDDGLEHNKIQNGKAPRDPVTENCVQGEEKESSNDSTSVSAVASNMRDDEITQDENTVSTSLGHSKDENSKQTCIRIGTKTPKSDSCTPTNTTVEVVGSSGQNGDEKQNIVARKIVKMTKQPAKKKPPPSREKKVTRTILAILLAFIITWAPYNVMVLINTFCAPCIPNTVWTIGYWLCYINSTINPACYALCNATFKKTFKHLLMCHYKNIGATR
Description: (§1) The compounds of this invention are muscarinic receptor antagonists. The muscarinic receptor affinity of test compounds can be determined by an in vitro receptor binding assay which utilizes a cell membrane preparation from the Chinese hamster ovary cells expressing the recombinant human muscarinic receptors (M1-M5), and is described in more detail in Example 18.
(§2) The inhibitory activity of compounds of this invention in vitro was determined using a modification of the method described in Hegde, S. S. et al. (1997) Br. J. Pharmacol., 120, 1409-1418.
(§3) Cell membranes from Chinese hamster ovary cells expressing the recombinant human muscarinic receptors (m1-m5) were employed. The assays were conducted with the radioligand [^3H]N-methyl scopolamine(0.4 nM, specific activity 84 Ci·mmol^−1) in a final volume of 0.25 mL Tris-Krebs buffer. Non-specific binding was defined with 1 μM atropine. Assays were performed using scintillation proximity assay technology. Competition-displacement curves were generated using 10 concentrations of test compounds and were analyzed by iterative curve fitting to a four parameter logistic equation. pIC50 values (−log of the IC50) were converted to pKi values using the Cheng-Prusoff equation.

[2] = biological target: T2, recombinant human muscarinic receptor m3 (Homo sapiens, UniProt P20309); assay: as above; details: CHO cell membranes, pIC50 converted to pKi by Cheng-Prusoff
T2 construct: expressed in transfected cells; host or cells: Chinese hamster ovary (CHO) cells, membrane preparation
T2 sequence (P20309 whole entry): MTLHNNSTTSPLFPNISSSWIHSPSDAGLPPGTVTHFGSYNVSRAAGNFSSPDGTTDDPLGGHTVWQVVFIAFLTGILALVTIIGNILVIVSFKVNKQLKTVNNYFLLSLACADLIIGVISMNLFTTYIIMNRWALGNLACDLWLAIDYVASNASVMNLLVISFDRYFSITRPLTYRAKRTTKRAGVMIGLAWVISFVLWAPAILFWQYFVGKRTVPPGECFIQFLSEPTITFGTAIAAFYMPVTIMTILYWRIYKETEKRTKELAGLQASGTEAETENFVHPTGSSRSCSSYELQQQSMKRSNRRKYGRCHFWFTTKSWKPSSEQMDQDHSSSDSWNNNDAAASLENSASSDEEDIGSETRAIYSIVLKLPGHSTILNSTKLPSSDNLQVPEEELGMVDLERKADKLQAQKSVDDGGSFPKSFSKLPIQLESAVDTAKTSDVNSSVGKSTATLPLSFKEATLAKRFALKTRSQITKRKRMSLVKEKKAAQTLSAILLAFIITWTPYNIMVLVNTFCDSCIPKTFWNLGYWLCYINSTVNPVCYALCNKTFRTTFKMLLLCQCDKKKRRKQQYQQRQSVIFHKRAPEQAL
Description: as §1, §2, §3

Row | SMILES | Ki [1] [nM] | Ki [2] [nM]
1 | CCCN(CC1CCN(S(C)(=O)=O)CC1)C1CCc2ccc(-c3ccco3)cc2C1 (stereo not drawn) [Cpd 117, (7-furan-2-yl-1,2,3,4-tetrahydro-naphthalen-2-yl)-(1-methanesulfonyl-piperidin-4-ylmethyl)-propyl-amine] | 141 | 603
2 | CCCN(CC1CCN(C(=O)NC)CC1)C1CCc2ccc(OC)cc2C1 (stereo not drawn) [Cpd 25, 4-{[(7-methoxy-1,2,3,4-tetrahydro-naphthalen-2-yl)-propyl-amino]-methyl}-piperidine-1-carboxylic acid methylamide] | 25.1 | 102
3 | CCCN(CC1CCN(C(=O)C2CCNCC2)CC1)C1CCc2ccc(OS(=O)(=O)c3c(C)noc3C)cc2C1 (stereo not drawn) [Cpd 114, 3,5-dimethyl-isoxazole-4-sulfonic acid 7-{[1-(piperidine-4-carbonyl)-piperidin-4-ylmethyl]-propyl-amino}-5,6,7,8-tetrahydro-naphthalen-2-yl ester] | 1.26 | 51.3
4 | CCN(CC1CCN(C(=O)NC(C)C)CC1)C1CCc2ccc(NC(=O)c3ccc(F)cc3)cc2C1 (stereo not drawn) [Cpd 7, 4-({ethyl-[7-(4-fluoro-benzoylamino)-1,2,3,4-tetrahydro-naphthalen-2-yl]-amino}-methyl)-piperidine-1-carboxylic acid isopropylamide] | 10.5 | 646
5 | CCCN(CC1CCN(S(C)(=O)=O)CC1)C1CCc2ccc(OCC)cc2C1 (stereo not drawn) [Cpd 104, (7-ethoxy-1,2,3,4-tetrahydro-naphthalen-2-yl)-(1-methanesulfonyl-piperidin-4-ylmethyl)-propyl-amine] | 16.2 | 46.8
6 | CCCN(CCC1CCN(C(=O)C2CCNCC2)CC1)[C@@H]1CCc2ccc(OC)cc2C1 [Cpd 116, (4-{2-[((R)-7-methoxy-1,2,3,4-tetrahydro-naphthalen-2-yl)-propyl-amino]-ethyl}-piperidin-1-yl)-piperidin-4-yl-methanone] | 2.51 | 5130
7 | CCN(CC1CCN(C(=O)N2CCOCC2)CC1)C1CCc2ccc(NC(=O)c3ccc(S(C)(=O)=O)cc3)cc2C1 (stereo not drawn) [Cpd 2, N-(7-{ethyl-[1-(morpholine-4-carbonyl)-piperidin-4-ylmethyl]-amino}-5,6,7,8-tetrahydro-naphthalen-2-yl)-4-methanesulfonyl-benzamide] | 47.9 | 1200
8 | CCCN(CC1CCN(S(C)(=O)=O)CC1)C1CCc2ccc(N)cc2C1 (stereo not drawn) [Cpd 85, N-(1-methanesulfonyl-piperidin-4-ylmethyl)-N-propyl-1,2,3,4-tetrahydro-naphthalene-2,7-diamine] | 12.9 | 166
9 | CCCN(CC1CCN(C(=O)N2CCN(C)CC2)CC1)C1CCc2ccc(OS(=O)(=O)c3c(C)noc3C)cc2C1 (stereo not drawn) [Cpd 115, 3,5-dimethyl-isoxazole-4-sulfonic acid 7-{[1-(4-methyl-piperazine-1-carbonyl)-piperidin-4-ylmethyl]-propyl-amino}-5,6,7,8-tetrahydro-naphthalen-2-yl ester] | 21.9 | 67.6
10 | CCCN(CC1CCN(C(=O)c2ccco2)CC1)C1CCc2cc(OC)c(OC)cc2C1 (stereo not drawn) [Cpd 70, (4-{[(6,7-dimethoxy-1,2,3,4-tetrahydro-naphthalen-2-yl)-propyl-amino]-methyl}-piperidin-1-yl)-furan-2-yl-methanone] | 42.7 | 331
11 | CCCN(CC1CCN(C(=O)N2CCOCC2)CC1)C1CCc2ccc(N)cc2C1 (stereo not drawn) [Cpd 95, (4-{[(7-amino-1,2,3,4-tetrahydro-naphthalen-2-yl)-propyl-amino]-methyl}-piperidin-1-yl)-morpholin-4-yl-methanone] | 5.25 | 186
12 | CCCN(CC1CCN(C(=O)c2ccno2)CC1)C1CCc2ccc(OS(=O)(=O)C(F)(F)F)cc2C1 (stereo not drawn) [Cpd 107, trifluoro-methanesulfonic acid 7-{[1-(isoxazole-5-carbonyl)-piperidin-4-ylmethyl]-propyl-amino}-5,6,7,8-tetrahydro-naphthalen-2-yl ester] | 16.2 | 148

— US6864266B2, “4-piperidinyl alkyl amine derivatives as muscarinic receptor antagonists” (Syntex (U.S.A.) LLC, priority 2001, dated 2005)
